The results in this text go back to US9315503B2, “Kinase inhibitors” (CHIESI FARMACEUTICI S.p.A., priority 2011, dated 2016).

The structures appear in SMILES notation. Counter-ions that a name gives are not always drawn.

T1 sequence (Q16539 whole entry): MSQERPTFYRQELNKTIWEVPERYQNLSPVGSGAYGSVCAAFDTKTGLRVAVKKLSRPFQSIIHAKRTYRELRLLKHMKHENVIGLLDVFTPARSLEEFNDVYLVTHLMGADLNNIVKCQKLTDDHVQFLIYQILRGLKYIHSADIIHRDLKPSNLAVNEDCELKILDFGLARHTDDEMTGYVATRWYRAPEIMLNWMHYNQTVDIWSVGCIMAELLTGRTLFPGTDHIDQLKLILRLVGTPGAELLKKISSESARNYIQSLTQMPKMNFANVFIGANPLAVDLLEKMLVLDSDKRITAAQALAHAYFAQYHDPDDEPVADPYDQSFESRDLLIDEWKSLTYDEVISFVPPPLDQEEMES

This assay addresses T1, p38alpha (Homo sapiens, UniProt Q16539).
T1 construct: purchased Invitrogen PV3304
The assay can be described thus: P38Alpha enzyme inhibition assay (Alphascreen kinase activity assay). Format: biochemical. The note with it: 100 pM p38alpha, 250 μM ATP, 2 hours pre-incubation at 25° C., read-out: p38α inhibition (IC50 values). As for the experimental part: P38Alpha Enzyme Inhibition Assay.
The inhibitory activity of compounds was determined using an Alphascreen® (Perkin Elmer) based kinase activity assay. Kinase reactions consisted of 25 mM HEPES pH 7.5, 10 mM MgCl2, 100 μM Na3VO4, 2 mM DTT, 0.05 mg/ml Tween 20, 100 pM p38alpha (Invitrogen, PV3304), 1% DMSO and 0.3 μg/ml ATF-2 fusion protein (New England Biolabs, 9224). Compounds were incubated under these conditions for 2 hours, at 25° C., prior to the initiation of the kinase activity by the addition of the 250 μM ATP. Reaction volumes were 20 uL. After 1 hr at 25° C. reactions were stopped by the adding 10 uL of 25 mM HEPES pH 7.5 containing 62.5 mM EDTA, 0.05% Triton X-100, 10% BSA and 0.83 ng/uL anti-phospho-ATF2 antibody (Abeam, ab28812). Detection was performed by measuring luminescence following the addition of Alphascreen Donor beads (Perkin Elmer 6765300) and Protein A Alphascreen Acceptor beads (Perkin Elmer 6760137), both at a final concentration of 20 ug/ml. IC50 values were determined from concentration-response curves.
As to `C[C@@H]1CCC[C@H](C)N1c1nnc2ccc(O[C@@H]3CC[C@H](NC(=O)Nc4cc(C(C)(C)C)nn4-c4cccc(CN5CCCC5)c4)c4ccccc43)cn12` [Example 144, 1-[5-tert-Butyl-2-(3-pyrrolidin-1-ylmethyl-phenyl)-2H-pyrazol-3-yl]-3-{(1S,4R)-4-[3-((2S,6R)-2,6-dimethyl-piperidin-1-yl)-[1,2,4]triazolo[4,3-a]pyridin-6-yloxy]-1,2,3,4-tetrahydro-naphthalen-1-yl}-urea formate salt], the IC50 was less than 10 nM.

As to `CN(C)CCOc1cccc(-n2nc(C(C)(C)C)cc2NC(=O)N[C@H]2CC[C@@H](Oc3ccc4nnc(N5CCCCC56CC6)n4c3)c3ccccc32)c1` [Example 148, 1-{(1S,4R)-4-[3-(4-Aza-spiro[2.5]oct-4-yl)-[1,2,4]triazolo[4,3-a]pyridin-6-yloxy]-1,2,3,4-tetrahydro-naphthalen-1-yl}-3-{5-tert-butyl-2-[3-(2-dimethylamino-ethoxy)-phenyl]-2H-pyrazol-3-yl}-urea formate salt], the concentration for half-maximal inhibition (IC50) was less than 10 nM.

Turning to `C[C@H]1CCCCN1c1nnc2ccc(O[C@@H]3CC[C@H](NC(=O)Nc4cc(C(C)(C)C)nn4-c4cccc(OCCN5CCCC5)c4)c4ccccc43)cn12` [Example 154, 1-{5-tert-Butyl-2-[3-(2-pyrrolidin-1-yl-ethoxy)-phenyl]-2H-pyrazol-3-yl}-3-{(1S,4R)-4-[3-((S)-2-methyl-piperidin-1-yl)-[1,2,4]triazolo[4,3-a]pyridin-6-yloxy]-1,2,3,4-tetrahydro-naphthalen-1-yl}-urea formate salt], the IC50 was less than 10 nM.

For the molecule `CCN(CC)CCOc1cccc(-n2nc(C(C)(C)C)cc2NC(=O)N[C@H]2CC[C@@H](Oc3ccc4nnc(N5CCCC[C@@H]5C)n4c3)c3ccccc32)c1` [Example 155, 1-{5-tert-Butyl-2-[3-(2-diethylamino-ethoxy)-phenyl]-2H-pyrazol-3-yl}-3-{(1S,4R)-4-[3-((S)-2-methyl-piperidin-1-yl)-[1,2,4]triazolo[4,3-a]pyridin-6-yloxy]-1,2,3,4-tetrahydro-naphthalen-1-yl}-urea formate salt], the IC50 is less than 10 nM.

As for `C[C@H]1CCCCN1c1nnc2ccc(O[C@@H]3CC[C@H](NC(=O)Nc4cc(C(C)(C)C)nn4-c4cccc(OCCN5CCOCC5)c4)c4ccccc43)cn12` [Example 156, 1-{5-tert-Butyl-2-[3-(2-morpholin-4-yl-ethoxy)-phenyl]-2H-pyrazol-3-yl}-3-{(1S,4R)-4-[3-((S)-2-methyl-piperidin-1-yl)-[1,2,4]triazolo[4,3-a]pyridin-6-yloxy]-1,2,3,4-tetrahydro-naphthalen-1-yl}-urea partial formate salt], the IC50 is less than 10 nM.

On to `C[C@H]1CCCCN1c1nnc2ccc(O[C@@H]3CC[C@H](NC(=O)Nc4cc(C(C)(C)C)nn4-c4cccc(OCCN5CCCCC5)c4)c4ccccc43)cn12` [Example 157, 1-{5-tert-Butyl-2-[3-(2-piperidin-1-yl-ethoxy)-phenyl]-2H-pyrazol-3-yl}-3-{(1S,4R)-4-[3-((S)-2-methyl-piperidin-1-yl)-[1,2,4]triazolo[4,3-a]pyridin-6-yloxy]-1,2,3,4-tetrahydro-naphthalen-1-yl}-urea formate salt], for which the concentration for half-maximal inhibition (IC50) was less than 10 nM.

`C[C@H]1CCCCN1c1nnc2ccc(O[C@@H]3CC[C@H](NC(=O)Nc4cc(C(C)(C)C)nn4-c4cccc(OCCN5CCN(C)CC5)c4)c4ccccc43)cn12` [Example 158, 1-(5-tert-Butyl-2-{3-[2-(4-methyl-piperazin-1-yl)-ethoxy]-phenyl}-2H-pyrazol-3-yl)-3-{(1S,4R)-4-[3-((S)-2-methyl-piperidin-1-yl)-[1,2,4]triazolo[4,3-a]pyridin-6-yloxy]-1,2,3,4-tetrahydro-naphthalen-1-yl}-urea formate salt]: the IC50 was less than 10 nM.

For `C[C@H]1CCCCN1c1nnc2ccc(O[C@@H]3CC[C@H](NC(=O)Nc4cc(C(C)(C)C)nn4-c4cccc(OCCN5CCC(F)CC5)c4)c4ccccc43)cn12` [Example 159, 1-{5-tert-Butyl-2-{3-[2-(4-fluoropiperidin-1-yl)-ethoxy]-phenyl}-2H-pyrazol-3-yl}-3-{(1S,4R)-4-[3-((S)-2-methyl-piperidin-1-yl)-[1,2,4]triazolo[4,3-a]pyridin-6-yloxy]-1,2,3,4-tetrahydro-naphthalen-1-yl}-urea formate salt], the 50% inhibitory concentration (IC50) was less than 10 nM.

In the case of `C[C@H]1CCCCN1c1nnc2ccc(O[C@@H]3CC[C@H](NC(=O)Nc4cc(C(C)(C)C)nn4-c4cccc(OCCN5CCCN(C)CC5)c4)c4ccccc43)cn12` [Example 160, 1-(5-tert-Butyl-2-{3-[2-(4-methyl-[1,4]-diazepan-1-yl)-ethoxy]-phenyl}-2H-pyrazol-3-yl)-3-{(1S,4R)-4-[3-((S)-2-methyl-piperidin-1-yl)-[1,2,4]triazolo[4,3-a]pyridin-6-yloxy]-1,2,3,4-tetrahydro-naphthalen-1-yl}-urea formate salt], the concentration for half-maximal inhibition (IC50) was less than 10 nM.

For the molecule `C[C@H]1CCCCN1c1nnc2ccc(O[C@@H]3CC[C@H](NC(=O)Nc4cc(C(C)(C)C)nn4-c4cccc(OCCN5C6CCCC5CC6)c4)c4ccccc43)cn12` [Example 162, 1-(2-{3-[2-(8-Aza-bicyclo[3.2.1]oct-8-yl)-ethoxy]-phenyl}-5-tert-butyl-2H-pyrazol-3-yl)-3-{(1S,4R)-4-[3-((S)-2-methyl-piperidin-1-yl)-[1,2,4]triazolo[4,3-a]pyridin-6-yloxy]-1,2,3,4-tetrahydro-naphthalen-1-yl}-urea formate salt], the IC50 is less than 10 nM.

`CCN(C)CCOc1cccc(-n2nc(C(C)(C)C)cc2NC(=O)N[C@H]2CC[C@@H](Oc3ccc4nnc(N5CCCC[C@@H]5C)n4c3)c3ccccc32)c1` [Example 163, 1-(5-tert-Butyl-2-{3-[2-(ethyl-methyl-amino)-ethoxy]-phenyl}-2H-pyrazol-3-yl)-3-{(1S,4R)-4-[3-((S)-2-methyl-piperidin-1-yl)-[1,2,4]triazolo[4,3-a]pyridin-6-yloxy]-1,2,3,4-tetrahydro-naphthalen-1-yl}-urea formate salt]: the IC50 is less than 10 nM.

In the case of `COC1CCN(CCOc2cccc(-n3nc(C(C)(C)C)cc3NC(=O)N[C@H]3CC[C@@H](Oc4ccc5nnc(N6CCCC[C@@H]6C)n5c4)c4ccccc43)c2)CC1` [Example 165, 1-(5-tert-Butyl-2-{3-[2-(4-methoxy-piperidin-1-yl-ethoxy]-phenyl}-2H-pyrazol-3-yl)-3-{(1S,4R)-4-[3-((S)-2-methyl-piperidin-1-yl)-[1,2,4]triazolo[4,3-a]pyridin-6-yloxy]-1,2,3,4-tetrahydro-naphthalen-1-yl}-urea formate salt], the IC50 is less than 10 nM.

With `C[C@H]1CCCCN1c1nnc2ccc(O[C@@H]3CC[C@H](NC(=O)Nc4cc(C(C)(C)C)nn4-c4cccc(OCCN5C6CCC5COC6)c4)c4ccccc43)cn12` [Example 166, 1-(5-tert-Butyl-2-{3-[2-(3-oxa-8-aza-bicyclo[3.2.1]oct-8-yl)-ethoxy]-phenyl}-2H-pyrazol-3-yl)-3-{(1S,4R)-4-[3-((S)-2-methyl-piperidin-1-yl)-[1,2,4]triazolo[4,3-a]pyridin-6-yloxy]-1,2,3,4-tetrahydro-naphthalen-1-yl}-urea formate salt], the IC50 is less than 10 nM.

For the molecule `COC1CCN(Cc2cccc(-n3nc(C(C)(C)C)cc3NC(=O)N[C@H]3CC[C@@H](Oc4ccc5nnc(N6CCCC[C@@H]6C)n5c4)c4ccccc43)c2)CC1` [Example 167, 1-{5-tert-Butyl-2-[3-(4-methoxy-piperidin-1-ylmethyl)-phenyl]-2H-pyrazol-3-yl}-3-{(1S,4R)-4-[3-((S)-2-methyl-piperidin-1-yl)-[1,2,4]triazolo[4,3-a]pyridin-6-yloxy]-1,2,3,4-tetrahydro-naphthalen-1-yl}-urea formate salt], the 50% inhibitory concentration (IC50) was less than 10 nM.

Regarding `COCCN(C)Cc1cccc(-n2nc(C(C)(C)C)cc2NC(=O)N[C@H]2CC[C@@H](Oc3ccc4nnc(N5CCCC[C@@H]5C)n4c3)c3ccccc32)c1` [Example 168, 1-[5-tert-Butyl-2-(3-{[(2-methoxy-ethyl)-methyl-amino]-methyl}-phenyl)-2H-pyrazol-3-yl]-3-{(1S,4R)-4-[3-((S)-2-methyl-piperidin-1-yl)-[1,2,4]triazolo[4,3-a]pyridin-6-yloxy]-1,2,3,4-tetrahydro-naphthalen-1-yl}-urea formate salt], the half-inhibitory concentration (IC50) is less than 10 nM.

Turning to `C[C@H]1CCCCN1c1nnc2ccc(O[C@@H]3CC[C@H](NC(=O)Nc4cc(C(C)(C)C)nn4-c4cccc(CN5CCC(F)CC5)c4)c4ccccc43)cn12` [Example 169, 1-{5-tert-Butyl-2-[3-(4-fluoro-piperidin-1-ylmethyl)-phenyl]-2H-pyrazol-3-yl}-3-{(1S,4R)-4-[3-((S)-2-methyl-piperidin-1-yl)-[1,2,4]triazolo[4,3-a]pyridin-6-yloxy]-1,2,3,4-tetrahydro-naphthalen-1-yl}-urea formate salt], the IC50 is less than 10 nM.

Turning to `C[C@H]1CCCCN1c1nnc2ccc(O[C@@H]3CC[C@H](NC(=O)Nc4cc(C(C)(C)C)nn4-c4cccc(CN(C)C)c4)c4ccccc43)cn12` [Example 170, 1-[5-tert-Butyl-2-(3-dimethylaminomethyl-phenyl)-2H-pyrazol-3-yl]-3-{(1S,4R)-4-[3-((S)-2-methyl-piperidin-1-yl)-[1,2,4]triazolo[4,3-a]pyridin-6-yloxy]-1,2,3,4-tetrahydro-naphthalen-1-yl}-urea formate salt], the IC50 is less than 10 nM.
